In patent EP4603105A1, “PHARMACEUTICAL COMPOSITION CONTAINING CYCLIC COMPOUND HAVING SELECTIVE KRAS INHIBITORY EFFECT AGAINST HRAS AND NRAS” (CHUGAI SEIYAKU KABUSHIKI KAISHA, priority 2022, dated 2024):

What was measured:
[1] = target: GDP-bound NRAS wild-type protein (Homo sapiens, UniProt P01111); experiment: Binding to NRAS by surface plasmon resonance (SPR), KD and KD ratio to KRAS; settings: ratio of KD for GDP-bound NRAS wild-type protein to KD for KRAS
Method in brief: (§1)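 SPR, 30°C: Avi-biotin RAS·GDP captured via Biotin CAPture (~100–300 RU); running buffer HBS pH 7.4, 1 mM DTT, 10 mM MgCl2, 0.01% Tween 20, 10 µM GDP, 4% DMSO. Single-cycle kinetics, 100 µL/min, 75 s injections; 1:1 model → KD.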

[2] = tested on: human lung cancer strain NCI-H441; experiment: NCI-H441 cell proliferation inhibitory activity (CellTiter-Glo, 4 days); format: cell-based; settings: NCI-H441 cells, 4 days, read-out: NCl-H441 IC50
Method in brief: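 Proliferation was scored by […] measured after the reagent was added to cultures kept at 37°C in 5% carbon dioxide.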

[3] = target: HRAS wild-type protein (Homo sapiens, UniProt P01112); experiment: Binding to HRAS by surface plasmon resonance (SPR), KD and KD ratio to KRAS; settings: ratio of KD for HRAS wild-type protein to KD for KRAS
Sequence of HRAS wild-type protein (P01112 whole entry): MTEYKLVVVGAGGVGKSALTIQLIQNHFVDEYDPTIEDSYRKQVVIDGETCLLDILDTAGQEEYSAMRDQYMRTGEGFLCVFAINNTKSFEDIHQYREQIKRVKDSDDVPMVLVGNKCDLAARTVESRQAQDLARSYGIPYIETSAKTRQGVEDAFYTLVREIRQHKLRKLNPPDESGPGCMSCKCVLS
Method in brief: as §1

[4] = target: GDP-bound KRAS wild-type protein (Homo sapiens, UniProt P01116); experiment: Binding to KRAS by surface plasmon resonance (SPR), dissociation constant KD; settings: 1:1 binding model
Sequence of GDP-bound KRAS wild-type protein (P01116 1-188 isoform P01116-2): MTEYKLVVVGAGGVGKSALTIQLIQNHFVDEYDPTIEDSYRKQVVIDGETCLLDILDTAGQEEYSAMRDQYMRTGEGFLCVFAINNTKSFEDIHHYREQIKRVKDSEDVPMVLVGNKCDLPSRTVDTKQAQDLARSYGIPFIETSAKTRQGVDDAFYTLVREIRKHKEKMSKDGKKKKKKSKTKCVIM
Method in brief: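 Running buffer contained 10 µM GDP and 10 mM MgCl2 to keep RAS in the GDP state, with 4% DMSO at pH 7.4. Compounds were flowed at 100 µL/min in 75 s steps of rising concentration over captured biotin-Avi RAS at 30°C. Sensorgrams were fitted 1:1 for KD.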

Sequence of GDP-bound NRAS wild-type protein (P01111 whole entry): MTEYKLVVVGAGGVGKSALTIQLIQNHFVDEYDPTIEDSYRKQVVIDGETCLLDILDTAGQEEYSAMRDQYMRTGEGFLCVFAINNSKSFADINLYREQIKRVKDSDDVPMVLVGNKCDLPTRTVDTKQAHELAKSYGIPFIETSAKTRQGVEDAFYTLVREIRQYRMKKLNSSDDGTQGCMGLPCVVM

CCO[C@@H]1C[C@H]2C(=O)NC3(CC(C)(C)C3)C(=O)N(C)[C@@H](C(CC)CC)C(=O)N(C)[C@H](C(=O)N(C)C)CC(=O)N(C)[C@@H](CC3CC3)C(=O)N[C@@H]([C@@H](C)CC)C(=O)N(C)CC(=O)N(C)[C@H]3C/C=C\CCN(C3=O)[C@@H](CC3CCC(F)(F)CC3)C(=O)N(C)CC(=O)N[C@@H](CCc3ccc(C(F)(F)F)c(Cl)c3)C(=O)N2C1 [PP2495]
NRAS /KRAS [1]: A (a compound having 10 or more and less than 20 is denoted as A)
IC50 [2]: 17.4 nM
HRAS /KRAS [3]: A (a compound having 10 or more and less than 20 is denoted as A)
Kd [4]: 0.84 nM

CCC(CC)[C@H]1C(=O)N(C)[C@H](C(=O)N(C)C)CC(=O)N(C)[C@@H](C(C)C)C(=O)N[C@@H]([C@@H](C)CC)C(=O)N(C)CC(=O)N(C)[C@H]2C/C=C\CCN(C2=O)[C@@H](CC2CCC(F)(F)CC2)C(=O)N(C)CC(=O)N[C@@H](CCc2cc(F)c(C(F)(F)F)c(F)c2)C(=O)N2C[C@@H](C)C[C@H]2C(=O)NC2(CC(C)(C)C2)C(=O)N1C [PP2496]
NRAS /KRAS [1]: A (a compound having 10 or more and less than 20 is denoted as A)
IC50 [2]: 97.3 nM
HRAS /KRAS [3]: A (a compound having 10 or more and less than 20 is denoted as A)
Kd [4]: 6.2 nM

CCC[C@H]1C(=O)N[C@@H]([C@@H](C)CC)C(=O)N(C)CC(=O)N(C)[C@H]2C/C=C\CCN(C2=O)[C@@H](CC2CCC(F)(F)CC2)C(=O)N(C)CC(=O)N[C@@H](CCc2ccc(C(F)(F)F)c(OC)c2)C(=O)N2C[C@@H](C)C[C@H]2C(=O)NC2(CC(C)(C)C2)C(=O)N(C)[C@@H](C(CC)CC)C(=O)N(C)[C@H](C(=O)N(C)C)CC(=O)N1C [PP2497]
NRAS /KRAS [1]: A (a compound having 10 or more and less than 20 is denoted as A)
IC50 [2]: 84.8 nM
HRAS /KRAS [3]: A (a compound having 10 or more and less than 20 is denoted as A)
Kd [4]: 1.5 nM

CCC[C@H]1C(=O)N[C@@H]([C@@H](C)CC)C(=O)N(C)CC(=O)N(C)[C@H]2C/C=C\CCN(C2=O)[C@@H](CC2CCC(F)(F)CC2)C(=O)N(C)CC(=O)N[C@@H](CCc2ccc(C(F)(F)F)c(Cl)c2)C(=O)N2C[C@H](OCC)C[C@H]2C(=O)NC2(CC(C)(C)C2)C(=O)N(C)[C@@H](C(CC)CC)C(=O)N(C)[C@H](C(=O)N(C)C)CC(=O)N1C [PP2498]
NRAS /KRAS [1]: A (a compound having 10 or more and less than 20 is denoted as A)
IC50 [2]: 21.9 nM
HRAS /KRAS [3]: A (a compound having 10 or more and less than 20 is denoted as A)
Kd [4]: 0.67 nM

CCC(CC)[C@H]1C(=O)N(C)[C@H](C(=O)N(C)C)CC(=O)N(C)[C@@H](CC2CC2)C(=O)N[C@@H]([C@@H](C)CC)C(=O)N(C)CC(=O)N(C)[C@H]2C/C=C\CCN(C2=O)[C@@H](CC2CCC(F)(F)CC2)C(=O)N(C)CC(=O)N[C@@H](CCc2cc(F)c(C(F)(F)F)c(F)c2)C(=O)N2C[C@@H](C)C[C@H]2C(=O)NC2(CC(C)(C)C2)C(=O)N1C [PP2500]
NRAS /KRAS [1]: A (a compound having 10 or more and less than 20 is denoted as A)
IC50 [2]: 125 nM
HRAS /KRAS [3]: A (a compound having 10 or more and less than 20 is denoted as A)
Kd [4]: 1.7 nM

CCCOC[C@H]1C(=O)N[C@@H]([C@@H](C)CC)C(=O)N(C)CC(=O)N(C)[C@H]2C/C=C\CCN(C2=O)[C@@H](CC2CCCCC2)C(=O)N(C)CC(=O)N[C@@H](CCc2cc(F)c(C(F)(F)F)c(F)c2)C(=O)N2C[C@H](OCC)C[C@H]2C(=O)NC2(CC(C)(C)C2)C(=O)N(C)[C@@H](C(CC)CC)C(=O)N(C)[C@H](C(=O)N(C)C)CC(=O)N1C [PP2501]
NRAS /KRAS [1]: AA (a compound having 20 or more is denoted as AA)
IC50 [2]: 180 nM
HRAS /KRAS [3]: A (a compound having 10 or more and less than 20 is denoted as A)
Kd [4]: 1.8 nM

CC[C@H](C)[C@@H]1NC(=O)[C@H](COC)N(C)C(=O)C[C@@H](C(=O)N(C)C)N(C)C(=O)[C@H](C2CCCC2)N(C)C(=O)C2(CC(C)(C)C2)NC(=O)[C@@H]2C[C@H](C)CN2C(=O)[C@H](CCc2ccc(C(F)(F)F)c(Cl)c2)NC(=O)CN(C)C(=O)[C@H](Cc2ccc(C)cc2)N2CC/C=C\C[C@@H](C2=O)N(C)C(=O)CN(C)C1=O [PP2502]
NRAS /KRAS [1]: A (a compound having 10 or more and less than 20 is denoted as A)
IC50 [2]: 7.9 nM
HRAS /KRAS [3]: A (a compound having 10 or more and less than 20 is denoted as A)
Kd [4]: 0.065 nM

CCOC[C@H]1C(=O)N[C@@H]([C@@H](C)CC)C(=O)N(C)CC(=O)N(C)[C@H]2C/C=C\CCN(C2=O)[C@@H](Cc2ccc(C)cc2)C(=O)N(C)CC(=O)N[C@@H](CCc2ccc(C(F)(F)F)c(OC)c2)C(=O)N2C[C@@H](C)C[C@H]2C(=O)NC2(CC(C)(C)C2)C(=O)N(C)[C@@H](C2CCCC2)C(=O)N(C)[C@H](C(=O)N(C)C)CC(=O)N1C [PP2505]
NRAS /KRAS [1]: A (a compound having 10 or more and less than 20 is denoted as A)
IC50 [2]: 17.2 nM
HRAS /KRAS [3]: B (a compound having 3 or more and less than 10 is denoted as B)
Kd [4]: 0.13 nM

CC[C@H](C)[C@@H]1NC(=O)[C@H](COC)N(C)C(=O)C[C@@H](C(=O)N(C)CC)N(C)C(=O)[C@H](C2CCCC2)N(C)C(=O)C2(CC(C)(C)C2)NC(=O)[C@@H]2C[C@H](C)CN2C(=O)[C@H](CCc2ccc(C(F)(F)F)c(Cl)c2)NC(=O)CN(C)C(=O)[C@H](Cc2ccc(C)cc2)N2CC/C=C\C[C@@H](C2=O)N(C)C(=O)CN(C)C1=O [PP2506]
NRAS /KRAS [1]: A (a compound having 10 or more and less than 20 is denoted as A)
IC50 [2]: 10.6 nM
HRAS /KRAS [3]: A (a compound having 10 or more and less than 20 is denoted as A)
Kd [4]: 0.13 nM

CCO[C@@H]1C[C@H]2C(=O)NC3(CC(C)(C)C3)C(=O)N(C)[C@@H](C3CCCC3)C(=O)N(C)[C@H](C(=O)N(C)CC)CC(=O)N(C)[C@@H](COC)C(=O)N[C@@H]([C@@H](C)CC)C(=O)N(C)CC(=O)N(C)[C@H]3C/C=C\CCN(C3=O)[C@@H](Cc3ccc(C)cc3)C(=O)N(C)CC(=O)N[C@@H](CCc3ccc(C(F)(F)F)c(Cl)c3)C(=O)N2C1 [PP2507]
NRAS /KRAS [1]: AA (a compound having 20 or more is denoted as AA)
IC50 [2]: 8.9 nM
HRAS /KRAS [3]: A (a compound having 10 or more and less than 20 is denoted as A)
Kd [4]: 0.061 nM

CCC[C@H]1C(=O)N[C@@H](CC(C)C)C(=O)N(C2CC2)CC(=O)N(C)[C@H]2C/C=C\CCN(C2=O)[C@@H](Cc2ccc(C)cc2)C(=O)N(C)CC(=O)N[C@@H](CCc2cc(F)c(C(F)(F)F)c(F)c2)C(=O)N2C[C@H](OCC)C[C@H]2C(=O)NC2(CC(C)(C)C2)C(=O)N(C)[C@@H](C2CCCC2)C(=O)N(C)[C@H](C(=O)N(C)C)CC(=O)N1C [PP2508]
NRAS /KRAS [1]: A (a compound having 10 or more and less than 20 is denoted as A)
IC50 [2]: 124 nM
HRAS /KRAS [3]: B (a compound having 3 or more and less than 10 is denoted as B)
Kd [4]: 3.4 nM

CCC(CC)[C@H]1C(=O)N(C)[C@H](C(=O)N(C)C)CC(=O)N(C)[C@@H](COC)C(=O)N[C@@H]([C@@H](C)CC)C(=O)N(C2CC2)CC(=O)N(C)[C@H]2C/C=C\CCN(C2=O)[C@@H](Cc2ccc(C)cc2)C(=O)N(C)CC(=O)N[C@@H](CCc2ccc(Cl)c(Cl)c2)C(=O)N2C[C@H](OC(C)C)C[C@H]2C(=O)NC2(CC(C)(C)C2)C(=O)N1C [PP2509]
NRAS /KRAS [1]: AA (a compound having 20 or more is denoted as AA)
IC50 [2]: 91.3 nM
HRAS /KRAS [3]: A (a compound having 10 or more and less than 20 is denoted as A)
Kd [4]: 2.6 nM
